What was measured:
hippocampal slices = assay: spontaneous interictal-like bursts in hippocampal slices; format: cell-based, rat
[1] = test system: acute rat hippocampal slice; assay: stimulation-evoked afterdischarge, extracellular field recordings in hippocampal slice; format: cell-based
Procedure: Sprague-Dawley rats (male and female; 25 to 35 days old) were prepared as described in Aghajanian, A. K. and Rasmussen, K., Synapse 31:331, 1989; and Buckmaster, P. S., Strowbridge, B. W., Schwartzdroin, P. A., J. Neurophysiol. 70:1281, 1993. In most hippocampal slice experiments, simultaneous extracellular field electrode recordings were obtained from CA1 and CA3 areas. For stimulation-evoked afterdischarge (13 slices, 8 animals), the concentration of Mg^2+ in the bathing medium was reduced to 0.9 mM. A bipolar tungsten stimulating electrode was placed on the Schaffer collaterals to evoke synaptically driven field responses in CA1; stimuli consisted to 100 to 300-μs-duration pulses at an intensity of four times population-spike threshold. Afterdischarges were evoked by a 2-s train of such stimuli delivered at 60 Hz. […] In all treatments, perfusion with furosemide-containing medium was begun after a consistent level of bursting had been established.
FIG. 2A1 illustrates that two seconds of electrical stimulation at 60 Hz elicited afterdischarge activity. […] The color bar indicates increasing magnitude of activity-evoked optical changes from the bottom to the top of the bar. The region of maximum optical change (red, yellow) corresponds to the apical and basal dendritic regions of CA1 on either side of the stimulating electrode. FIGS. 2B1-2BC illustrate responses to electrical stimulation following 20 minutes of perfusion with medium containing 2.5 mM furosemide.

[2] = test system: acute rat hippocampal slice; assay: imaging of intrinsic optical signals in hippocampal slice; format: cell-based
Description: For imaging of intrinsic optical signals, the tissue was illuminated with a beam of white light (tungsten filament light and lens system; Dedotec USA, Lodi, N.J.) directed through the microscope condenser. The light was controlled and regulated (power supply: Lambda Electronics, Melville, N.Y.) to minimize fluctuations and filtered (695 nm long-pass) so that the slice was transilluminated with long wavelengths (red). Image frames were acquired with a charge-coupled device camera (Dage-MTI) at 30 Hz and were digitized at 8 bits with a spatial resolution of 512 by 480 pixels by means of an Imaging Technology Series 151 imaging system; gains and offsets of the camera-control box and the analog-to-digital board were adjusted to optimize the sensitivity of the system. […] To increase signal-to-noise ratio, an averaged image was composed from 16 individual image-frames, integrated over 0.5 s and averaged together. […] Pseudocolored images were calculated by subtracting the first control image from subsequently acquired images and assigned a color lookup table to the pixel values. For these images, usually a linear low-pass filter was used to remove high-frequency noise and a linear-histogram stretch was used to map the pixel values over the dynamic range of the system. All operations on these images were linear so that quantitative information was preserved. […]

[3] = following treatment with furosemide, FIG. 3E

**Q.** For Nc1ccncc1 [4-AP], which “spontaneous interictal-like bursts, average” value (hippocampal slices; 200 to 300 μM 4-AP in bathing medium, 4 slices, 2 animals) is on record?
**A.** The value was 33 burst/min.

**Q.** How did the “spontaneous interictal-like bursts, average” value (hippocampal slices; 10 mM K+ in bathing medium, 6 slices, 4 animals) turn out when [K+] [K^+] was run?
**A.** Its value is 81 bursts/min.

**Q.** NS(=O)(=O)c1cc(C(=O)O)c(NCc2ccco2)cc1Cl [furosemide] was tested. Which electrical afterdischarge activity ([1]; 20 minutes of perfusion with medium containing 2.5 mM furosemide, 2 s stimulation at 60 Hz, FIG. 2B2) did it give?
**A.** The electrical afterdischarge activity was “blocked”.

**Q.** What about the “field response to the test pulse” value ([1]; 20 minutes of perfusion with medium containing 2.5 mM furosemide, FIG. 2B1) of the same compound?
**A.** The value was “hyperexcitable field response (multiple population spikes)”.

**Q.** And the “reversibility of the effect after washout” value ([1]; following 45 minutes of perfusion with normal bathing medium, FIGS. 2C1-2C3)?
**A.** The value was “restoration of the initial response pattern”.

**Q.** And the “epileptiform activity during electrical stimulation” value [1, 3]?
**A.** The value was “blocks”.

**Q.** What about the stimulation-evoked optical changes ([2]; 20 minutes of perfusion with medium containing 2.5 mM furosemide, FIG. 2BC) of the same compound?
**A.** Its stimulation-evoked optical changes is “blocked”.

**Q.** What about the “intrinsic optical signal (peak optical change during electrical stimulation)” value [2, 3] of the same compound?
**A.** The value was “blocks”.
